# Test results from PMC6792352, “Limited Chemical Structural Diversity Found to Modulate Thyroid Hormone Receptor in the Tox21 Chemical Library” (Environmental Health Perspectives, 2019).
# Where a name gives a salt, the structure may show the parent alone. No end group written: not given here.
# Assay: in vitro
# Settings: rat, gh3-tre-luc cells
Compound,CC50 at 24 h (AC50 (uM) modified / 1000),also measured
O=C(Cl)c1cccc([N+](=O)[O-])c1 [3-Nitrobenzoyl chloride],> 90 µM,
O=C(OC[C@H]1O[C@](O)(COC(=O)c2cccnc2)[C@@H](OC(=O)c2cccnc2)[C@@H]1OC(=O)c1cccnc1)c1cccnc1 [Nicofuranose],> 50 µM,
"O=C1NC(=O)c2ccccc21 [Potassium 1,3-dioxo-1,3-dihydroisoindol-2-ide]",> 90 µM,
O=C(O)c1ccc2cc(O)ccc2c1 [6-Hydroxy-2-naphthoic acid],> 90 µM,
"Cc1cc(C)cc(N)c1 [3,5-Dimethylaniline]",> 90 µM,
Cc1cc(C2CC2)nc(Nc2ccccc2)n1 [Cyprodinil],74.9 µM,
C[N+]1(CCF)[C@@H]2CC[C@H]1CC(OC(=O)C(O)(c1ccccc1)c1ccccc1)C2 (some centres unmarked) [Flutropium bromide],> 50 µM,
CCC=CCCOC(=O)c1ccccc1O (stereo in doubt) [(3Z)-Hex-3-en-1-yl salicylate],> 90 µM,
OC[C@@H](O)[C@H]1O[C@@H]2O[C@@H](C(Cl)(Cl)Cl)O[C@@H]2[C@H]1O [beta-Chloralose],,"CC50 at 24 h (AC50 (uM) modified / 1000, Tox21_110001=Tox21_112370, viability, 1 nM T3 present, 24 h): > 50 µM"
CC(C)C[C@@H](N)C(=O)O [D-Leucine],> 50 µM,
CN(C)CCCO[C@@H]1[C@H]2OC(C)(C)O[C@H]2O[C@@H]1[C@H](O)CO [Amiprilose hydrochloride],> 50 µM,
N=C(N)NCC1COC2(CCCCC2)O1 (centres unmarked) [Guanadrel sulfate],> 20 µM,
CCCCCCCC(=O)OCC(O)CO (centres unmarked) [Glyceryl monooctanoate],> 90 µM,
CC[C@H](C)C(=O)O[C@H]1C[C@H](O)C=C2C=C[C@H](C)[C@H](CC[C@@H](O)C[C@@H](O)CC(=O)O)[C@H]21 [Pravastatin sodium],> 90 µM,
COc1ccc(CCC(=O)c2c(O)cc(O[C@@H]3O[C@H](CO)[C@@H](O)[C@H](O)[C@H]3O[C@@H]3O[C@@H](C)[C@H](O)[C@@H](O)[C@H]3O)cc2O)cc1O [Neohesperidin dihydrochalcone],> 90 µM,
"CC(C)c1cccc(C(C)C)c1 [1,3-Diisopropylbenzene]",> 90 µM,
CC1CCC(=O)O1 (centres unmarked) [4-Pentanolide],,"CC50 at 24 h (AC50 (uM) modified / 1000, Tox21_110001=Tox21_302624, viability, 1 nM T3 present, 24 h): > 90 µM"
CCC(C)C1CCCCC1=O (centres unmarked) [2-sec-Butylcyclohexanone],> 90 µM,
O=C/C=C/c1ccccc1 [3-Phenylprop-2-enal],> 90 µM,
N#Cc1cccnc1 [3-Pyridinecarbonitrile],> 90 µM,
"CCCN(CCC)CCc1c[nH]c2ccccc12 [N,N-Dipropyltryptamine hydrochloride]",,"CC50 at 24 h (AC50 (uM) modified / 1000, Tox21_110001=Tox21_112893, viability, 1 nM T3 present, 24 h): 39.8 µM"

Compound,CC50 at 24 h (AC50 (uM) modified / 1000),also measured
CN(C)CCC[C@@]1(c2ccc(F)cc2)OCc2cc(C#N)ccc21 [Escitalopram oxalate],> 50 µM,
Cc1cc(Cl)ccc1OC(C)C(=O)O (centres unmarked) [Mecoprop],> 90 µM,
Nc1nc(N)c2nc(-c3ccccc3)c(N)nc2n1 [Triamterene],> 90 µM,
CCCCCC/C=C\CCCCCCCC(=O)O [(Z)-Hexadec-9-enoic acid],> 90 µM,
"O=C(O)C1=NN(c2ccc(S(=O)(=O)O)cc2)C(=O)C1 [Sodium 5-oxo-1-(4-sulfophenyl)-4,5-dihydro-1H-pyrazole-3-carboxylate]",> 90 µM,
"Clc1cc(Cl)c(Cl)c(Cl)c1 [1,2,3,5-Tetrachlorobenzene]",> 90 µM,
Cc1ccccc1OCC(O)CNCCOc1ccc(C(N)=O)cc1 (centres unmarked) [Tolamolol],13.4 µM,
"Cc1cc(-c2cc(C)c(N)c(C)c2)cc(C)c1N [3,3',5,5'-Tetramethylbenzidine]",> 90 µM,
CS(=O)(=O)c1ccc(Cl)cc1 [4-Chlorophenyl methyl sulfone],> 90 µM,
CCCCCCCO [1-Heptanol],> 90 µM,
Cc1cc(C)c(N=Nc2c(O)c(S(=O)(=O)O)cc3cc(S(=O)(=O)O)ccc23)cc1C [Ponceau 3R],> 6 µM,
C[C@H](N)C(=O)N[C@@H](C)P(=O)(O)O [Alafosfalin],> 50 µM,
C=CCCCCCCCCCCCC [1-Tetradecene],> 90 µM,
O=C1C(c2[nH]c3ccc(S(=O)(=O)O)cc3c2O)=Nc2ccc(S(=O)(=O)O)cc21 [C.I. Acid Blue 74],> 90 µM,
O=C(Nc1ccccc1)N(Cc1ccc(Cl)cc1)C1CCCC1 [Pencycuron],54.7 µM,
RKDVY [Thymopentin],> 50 µM,
O=[N+]([O-])c1cccc(S(=O)(=O)O)c1 [Sodium 3-nitrobenzenesulfonate],> 90 µM,
CO/N=C(/C(=O)OC)c1ccccc1CO/N=C(\C)c1cccc(C(F)(F)F)c1 [Trifloxystrobin],36.9 µM,
CCN(CC)CCn1c(=O)c(Cc2ccc(OC)cc2)nc2ccccc21 [Caroverine hydrochloride],19.1 µM,
Nc1nc(N)nc(-c2cc(Cl)ccc2Cl)n1 [Irsogladine maleate],> 50 µM,
"C=CC(=O)OCC1CC2CC1C1CCC(COC(=O)C=C)C21 (centres unmarked) [Octahydro-1H-4,7-methanoindene-1,5-diyldimethanediyl bisprop-2-enoate]",75.1 µM,

Compound,CC50 at 24 h (AC50 (uM) modified / 1000),also measured
CO/N=C(\C(=O)N[C@@H]1C(=O)N2C(C(=O)O)=C(CSC(=O)c3ccco3)CS[C@H]12)c1csc(N)n1 [Ceftiofur],> 50 µM,
O=C(O)c1cc(O)c2c3nc4ccccc4oc-3cc(=O)c2n1 [Pirenoxine sodium],> 50 µM,
CC(C)NCC(O)c1ccc2ccccc2c1 (centres unmarked) [Pronethalol],> 50 µM,
CC1(C)C(/C=C(\Cl)C(F)(F)F)C1C(=O)OC(C#N)c1cccc(Oc2ccccc2)c1 (stereo not drawn) [alpha-Cyhalothrin],> 90 µM,
CCOc1ccc(S(=O)(=O)O)c2cccnc12 [Actinoquinol],> 50 µM,
"O=S(=O)(O)c1cccc2c(S(=O)(=O)O)cccc12 [1,5-Naphthalenedisulfonic acid, disodium salt hydrate]",> 90 µM,
COC(=O)c1ccc(I)cc1S(=O)(=O)NC(=O)Nc1nc(C)nc(OC)n1 [Iodosulfuron-methyl-sodium],> 90 µM,
"Nc1nnc(S)[nH]1 [5-Amino-1,2-dihydro-3H-1,2,4-triazole-3-thione]",> 90 µM,
CO/N=C(\C(=O)N[C@@H]1C(=O)N2C(C(=O)O)=C(CSc3cnns3)CS[C@H]12)c1csc(N)n1 [Cefuzonam hydrochloride],> 50 µM,
OCC(O)CS (centres unmarked) [1-Thioglycerol],> 90 µM,
O=NN1CCCCCC1 [N-Nitrosohexamethyleneimine],> 90 µM,
CC(=O)OC(C)=O [Acetic anhydride],> 90 µM,
CCCCCCCC/C=C\CCCCCCCC(=O)OCC(O)CO (centres unmarked) [Glyceryl monooleate],> 90 µM,
C=CC(N)=O [Acrylamide],> 90 µM,
Cc1ccc2c(ccc3ccccc32)c1 [2-Methylphenanthrene],> 90 µM,
CCCCC(CC)C(=O)OC(C)C (centres unmarked) [Propan-2-yl 2-ethylhexanoate],> 90 µM,
CC[C@@H]1/C=C(\C)C[C@H](C)C[C@H](OC)[C@H]2O[C@@](O)(C(=O)C(=O)N3CCCC[C@H]3C(=O)O[C@H](/C(C)=C/[C@@H]3CC[C@H](Cl)[C@H](OC)C3)[C@H](C)[C@@H](O)CC1=O)[C@H](C)C[C@@H]2OC [Pimecrolimus],> 50 µM,
Cc1ccc(C(C)NC(=O)[C@@H](NC(=O)OC(C)C)C(C)C)cc1 (some centres unmarked) [Iprovalicarb],> 90 µM,
Cc1nc2ccccc2s1 [2-Methylbenzothiazole],> 90 µM,
CCCCCCC(C)OC(=O)COc1nc(F)c(Cl)c(N)c1Cl (centres unmarked) [Fluroxypyr-meptyl],51.1 µM,
COCC(=O)N(c1c(C)cccc1C)C(C)C(=O)OC (centres unmarked) [Metalaxyl],> 90 µM,

Compound,CC50 at 24 h (AC50 (uM) modified / 1000),also measured
CN1CCN(CCCN2c3ccccc3Sc3ccccc32)CC1 [Perazine],16.5 µM,
O=C(O[C@@H](C(=O)O)[C@@H](OC(=O)c1ccccc1)C(=O)O)c1ccccc1 [Dibenzoyl-L-tartaric acid],> 90 µM,
"CC(O)CCl (centres unmarked) [1-Chloro-2-propanol, technical grade (~75% 1-chloro-2-propanol; ~25% 2-chloro-1-propanol)]",,"CC50 at 24 h (AC50 (uM) modified / 1000, Tox21_110001=Tox21_200998, viability, 1 nM T3 present, 24 h): > 90 µM"
CO[C@@]1(NC(=O)CSC(F)F)C(=O)N2C(C(=O)O)=C(CSc3nnnn3CCO)CO[C@@H]21 [Flomoxef],> 50 µM,
Cc1ccc(S(=O)(=O)NC(=O)N[C@@H](C)Cc2ccccc2)cc1 [Tosifen],> 50 µM,
C#CCN(C)[C@H](C)Cc1ccccc1 [Selegiline hydrochloride],> 50 µM,
CCC(C(=O)NC(N)=O)c1ccccc1 (centres unmarked) [Ethylphenylacetylurea],> 90 µM,
CCCOc1ccc2nc(NC(=O)OC)[nH]c2c1 [Oxibendazole],0.527 µM,
O=NN(CCO)CCO [N-Nitrosodiethanolamine],,"CC50 at 24 h (AC50 (uM) modified / 1000, Tox21_110001=Tox21_200283, viability, 1 nM T3 present, 24 h): > 90 µM"
NCCCN1CCOCC1 [4-Morpholinepropanamine],> 90 µM,
CC(C)Cc1nccs1 [2-(2-Methylpropyl)thiazole],> 90 µM,
O=c1[nH]c(=O)[nH]c(=O)[nH]1 [Cyanuric acid],> 90 µM,
Nc1nc(F)nc2c1ncn2[C@@H]1O[C@H](CO)[C@@H](O)[C@@H]1O [Fludarabine],52 µM,
CCCCN(CCCC)CCCC [Tributylamine],> 90 µM,
COc1cc([C@@H]2c3cc4c(cc3[C@@H](O[C@@H]3O[C@@H]5CO[C@@H](c6cccs6)O[C@H]5[C@H](O)[C@H]3O)[C@H]3COC(=O)[C@H]23)OCO4)cc(OC)c1O [Teniposide],4.5 µM,
CCCCCCC(C)(C)S [tert-Nonanethiol],> 90 µM,
CCOCN(C(=O)CCl)c1c(C)cccc1CC [Acetochlor],> 90 µM,
c1ccc2[nH]cnc2c1 [Benzimidazole],> 90 µM,
NCc1cccnc1 [3-(Aminomethyl)pyridine],> 90 µM,
ON=CC=NO [Glyoxime],> 90 µM,
